Data as given in patent US20100069341A1, “TETRAHYDRO-PYRANOPYRAZOLE CANNABINOID MODULATORS” (priority 2005, published 2010).
pIC50: −log10 of the molar value. Where two headings read alike, the source gives them in different places.

What was measured:
Cannabinoid CB1 Receptor = target: T1, Cannabinoid CB1 Receptor (Homo sapiens, UniProt P21554); experiment: Binding assay, cannabinoid CB1 receptor ([3H]-CP-55,940 displacement, SK-N-MC cell membranes); details: for inhibition at 0.2 µM: read-out: Cannabinoid CB1 Receptor Binding, percent inhibition
T1 construct: expressed in transfected cells; semi-purified membrane pellet
T1 sequence (P21554 whole entry): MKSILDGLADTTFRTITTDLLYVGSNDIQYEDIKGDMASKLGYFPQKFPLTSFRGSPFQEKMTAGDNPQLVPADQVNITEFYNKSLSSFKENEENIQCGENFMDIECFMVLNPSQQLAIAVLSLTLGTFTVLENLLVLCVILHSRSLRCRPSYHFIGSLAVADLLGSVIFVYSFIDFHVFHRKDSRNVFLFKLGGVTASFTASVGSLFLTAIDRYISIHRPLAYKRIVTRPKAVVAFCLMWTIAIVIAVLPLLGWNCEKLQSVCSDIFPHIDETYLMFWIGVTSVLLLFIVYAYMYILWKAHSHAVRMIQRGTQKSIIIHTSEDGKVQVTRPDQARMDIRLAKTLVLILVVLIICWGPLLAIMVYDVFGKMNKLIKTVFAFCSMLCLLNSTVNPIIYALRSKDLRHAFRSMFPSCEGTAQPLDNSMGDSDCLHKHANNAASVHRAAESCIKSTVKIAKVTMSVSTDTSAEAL
Procedure: (§1) Binding Assay for CB1 or CB2 Agonists or Inverse Agonists
(§2) The human CB1 and CB2 receptors were stably expressed in SK-N-MC cells transfected with pcDNA3 CB-1 (human) or pcDNA3 CB-2 (human). The cells were grown in T-180 cell culture flasks under standard cell culture conditions at 37° C. in a 5% CO2 atmosphere. The cells were harvested by trysinization and homogenized in a homogenization buffer (10 mM Tris, 0.2 mM MgCl2, 5 mM KCl, with protease inhibitors aprotinin, leupeptin, pepstatin A and bacitracin) and centrifuged (2000 g). The supernatant was then centrifuged in 2M sucrose (31,300 g) to produce a semi-purified membrane pellet. The pellet was resuspended in homogenization and store at −80° C.
On the day of the assay, the pellet was thawed on ice and diluted in assay buffer (50 mM Tris-HCl, 5 mM MgCl2, 2.5 mM EDTA, 0.5 mg/mL fatty acid free bovine serum albumin, pH 7.5). […] The plate was covered and incubated for 90 minutes at 30° C. The contents were then aspirated onto a Packard Unifilter GF/C filter bottom plate prewet with 0.5% polyethyleneimine. The wells of the polypropylene plate were rinsed and aspirated seven times with a 0.9% saline-0.5% Tween 20 solution. The Unifilter plate was dried, a scintillation cocktail was added to each well and the counts representing binding were quantitated in a TopCount scintillation counter.
(§3) For compounds tested, an IC50 binding value was obtained from percent inhibition studies in which various test concentrations were used. The binding value (in μM) was calculated by linear regression.

Cannabinoid CB2 Receptor = target: T2, Cannabinoid CB2 Receptor (Homo sapiens, UniProt P34972); experiment: Binding assay, cannabinoid CB2 receptor ([3H]-CP-55,940 displacement, SK-N-MC cell membranes); details: test concentration of 0.2 μM, human CB2 in SK-N-MC membranes; for inhibition at 0.2 µM: read-out: Cannabinoid CB2 Receptor Binding, percent inhibition
T2 construct: expressed in transfected cells; semi-purified membrane pellet
T2 sequence (P34972 whole entry): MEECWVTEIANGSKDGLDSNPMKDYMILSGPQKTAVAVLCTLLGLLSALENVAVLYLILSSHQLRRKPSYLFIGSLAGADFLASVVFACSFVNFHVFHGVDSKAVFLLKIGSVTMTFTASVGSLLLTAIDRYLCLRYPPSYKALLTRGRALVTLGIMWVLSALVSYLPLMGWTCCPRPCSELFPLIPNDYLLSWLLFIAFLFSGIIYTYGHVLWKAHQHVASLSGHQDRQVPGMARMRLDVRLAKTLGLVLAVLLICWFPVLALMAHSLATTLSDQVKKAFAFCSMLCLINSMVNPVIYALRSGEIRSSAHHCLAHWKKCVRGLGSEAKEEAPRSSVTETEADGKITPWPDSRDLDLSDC
Procedure: as §1, §2
On the day of the assay, the pellet was thawed on ice and diluted in assay buffer (50 mM Tris-HCl, 5 mM MgCl2, 2.5 mM EDTA, 0.5 mg/mL fatty acid free bovine serum albumin, pH 7.5). The diluted membrane was added with buffer, test compound or standard and the radioligand [H]^3+-CP-55,940 (0.2 nM) to the wells of a 96-well polypropylene plate. Non-specific binding was measured in wells containing 10 uM WIN 55,212. The plate was covered and incubated for 90 minutes at 30° C. The contents were then aspirated onto a Packard Unifilter GF/C filter bottom plate prewet with 0.5% polyethyleneimine. The wells of the polypropylene plate were rinsed and aspirated seven times with a 0.9% saline-0.5% Tween 20 solution. The Unifilter plate was dried, a scintillation cocktail was added to each well and the counts representing binding were quantitated in a TopCount scintillation counter.
as §3, with “regression. For compounds without an IC50 binding value, the percent inhibition (in %) was obtained at a test concentration of 0.2 μM.” for “regression.”

[1] = test concentration of 0.2 μM, human CB1 in SK-N-MC membranes

Compound | Cannabinoid CB1 Receptor Binding, percent inhibition (Cannabinoid CB1 Receptor; [1]) | Cannabinoid CB2 Receptor Binding, percent inhibition (Cannabinoid CB2 Receptor) | pIC50 (Cannabinoid CB1 Receptor) | inhibition at 0.2 µM (Cannabinoid CB1 Receptor; [1]) | inhibition at 0.2 µM (Cannabinoid CB2 Receptor) | inhibition at 0.2 µM (Cannabinoid CB1 Receptor)
(7Z)-7-(5-chloro-thiophen-2-ylmethylene)-1-(2,4-dichloro-phenyl)-1,4,6,7-tetrahydro-pyrano[4,3-c]pyrazole-3-carboxylic acid [(2S)-2-benzyl-pentyl]-amide [Cpd 59] | 38% | 17% | – | – | – | –
O=C(NN1CCCCCC1)c1nn(-c2ccc(Cl)cc2Cl)c2c1COC/C2=C\c1cccs1 [Cpd 36, (7Z)-1-(2,4-dichloro-phenyl)-7-thiophen-2-ylmethylene-1,4,6,7-tetrahydro-pyrano[4,3-c]pyrazole-3-carboxylic acid azepan-1-ylamide] | – | – | 7.70 | 84% | 16% | –
O=C(NN1CC2CCCC2C1)c1nn(-c2ccc(Cl)cc2Cl)c2c1COC/C2=C\c1ccc(F)cc1 (centres unmarked) [Cpd 17, (7Z)-1-(2,4-dichloro-phenyl)-7-(4-fluoro-benzylidene)-1,4,6,7-tetrahydro-pyrano[4,3-c]pyrazole-3-carboxylic acid (hexahydro-cyclopenta[c]pyrrol-2-yl)-amide] | – | – | 7.70 | 99% | 29% | –
CC(NC(=O)c1nn(-c2ccc(Cl)cc2Cl)c2c1COC/C2=C\c1ccc(Cl)o1)c1ccccn1 (centres unmarked) [Cpd 67, (7Z)-7-(5-chloro-furan-2-ylmethylene)-1-(2,4-dichloro-phenyl)-1,4,6,7-tetrahydro-pyrano[4,3-c]pyrazole-3-carboxylic acid (1-pyridin-2-yl-ethyl)-amide] | – | – | – | 40% | 7% | –
O=C(NN1CCCCC1)c1nn(-c2ccc(Cl)cc2)c2c1COC/C2=C\c1ccc(F)cc1 [Cpd 11, (7Z)-1-(4-chloro-phenyl)-7-(4-fluoro-benzylidene)-1,4,6,7-tetrahydro-pyrano[4,3-c]pyrazole-3-carboxylic acid piperidin-1-ylamide] | – | – | – | 55% | 6% | –
O=C(N[C@H](CO)c1ccccc1)c1nn(-c2ccc(Cl)cc2Cl)c2c1COC/C2=C\c1ccsc1 [Cpd 48, (7Z)-1-(2,4-dichloro-phenyl)-7-thiophen-3-ylmethylene-1,4,6,7-tetrahydro-pyrano[4,3-c]pyrazole-3-carboxylic acid [(1S)-2-hydroxy-1-phenyl-ethyl]-amide] | – | – | – | 36% | 17% | –
O=C(NNC1CCCCC1)c1nn(-c2ccc(Cl)cc2Cl)c2c1COC/C2=C\c1ccc(F)cc1 [Cpd 29, (7Z)-1-(2,4-dichloro-phenyl)-7-(4-fluoro-benzylidene)-1,4,6,7-tetrahydro-pyrano[4,3-c]pyrazole-3-carboxylic acid N′-cyclohexyl-hydrazide] | – | – | – | 52% | 0% | –
O=C(c1nn(-c2ccc(Cl)cc2)c2c1COC/C2=C\c1ccc(F)cc1)N1CCC[C@@H]1CO [Cpd 18, (7Z)-[1-(4-chloro-phenyl)-7-(4-fluoro-benzylidene)-1,4,6,7-tetrahydro-pyrano[4,3-c]pyrazol-3-yl]-[(2R)-2-hydroxymethyl-pyrrolidin-1-yl]-methanone] | – | – | – | 30% | 14% | –
C[C@@H](NC(=O)c1nn(-c2ccc(Cl)cc2Cl)c2c1COC/C2=C\c1cccs1)C1CCCCC1 [Cpd 33, (7Z)-1-(2,4-dichloro-phenyl)-7-thiophen-2-ylmethylene-1,4,6,7-tetrahydro-pyrano[4,3-c]pyrazole-3-carboxylic acid [(R)-1-cyclohexyl-ethyl]-amide] | – | – | 8.00 | 88% | 15% | –
azepan-1-yl-[1-(2,4-dichloro-phenyl)-7-(4-fluoro-benzyl)-1,4,6,7-tetrahydro-pyrano[4,3-c]pyrazol-3-yl]-methanone [Cpd 25] | 50% | 0% | – | – | – | –
C[C@@H](NC(=O)c1nn(-c2ccc(Cl)cc2Cl)c2c1COC/C2=C\c1ccc(Cl)s1)C1CCCCC1 [Cpd 52, (7Z)-7-(5-chloro-thiophen-2-ylmethylene)-1-(2,4-dichloro-phenyl)-1,4,6,7-tetrahydro-pyrano[4,3-c]pyrazole-3-carboxylic acid [(R)-1-cyclohexyl-ethyl]-amide] | – | – | 8.05 | 88% | 21% | –
O=C(c1nn(-c2ccc(Cl)cc2Cl)c2c1COC/C2=C\c1ccc(F)cc1)N1CCCC1 [Cpd 10, (7Z)-[1-(2,4-dichloro-phenyl)-7-(4-fluoro-benzylidene)-1,4,6,7-tetrahydro-pyrano[4,3-c]pyrazol-3-yl]-pyrrolidin-1-yl-methanone] | – | – | – | 33% | 14% | –
O=C(NN1CCCCC1)c1nn(-c2ccc(Cl)cc2Cl)c2c1COC/C2=C\c1ccc(Cl)o1 [Cpd 64, (7Z)-7-(5-chloro-furan-2-ylmethylene)-1-(2,4-dichloro-phenyl)-1,4,6,7-tetrahydro-pyrano[4,3-c]pyrazole-3-carboxylic acid piperidin-1-ylamide] | – | – | – | 62% | 12% | –
C[C@@H](NC(=O)c1nn(-c2ccc(Cl)cc2)c2c1COC/C2=C\c1ccc(F)cc1)c1ccccc1 [Cpd 12, (7Z)-1-(4-chloro-phenyl)-7-(4-fluoro-benzylidene)-1,4,6,7-tetrahydro-pyrano[4,3-c]pyrazole-3-carboxylic acid [(1R)-1-phenyl-ethyl]-amide] | – | – | 7.30 | 81% | 5% | –
C[C@@H](NC(=O)c1nn(-c2ccc(Cl)cc2Cl)c2c1COC/C2=C\c1ccc(Cl)o1)C1CCCCC1 [Cpd 62, (7Z)-7-(5-chloro-furan-2-ylmethylene)-1-(2,4-dichloro-phenyl)-1,4,6,7-tetrahydro-pyrano[4,3-c]pyrazole-3-carboxylic acid [(R)-1-cyclohexyl-ethyl]-amide] | – | – | 7.52 | – | 17% | 74%
CN1CCN(NC(=O)c2nn(-c3ccc(Cl)cc3Cl)c3c2COCC3Cc2ccc(F)cc2)CC1 (centres unmarked) [Cpd 26, 1-(2,4-dichloro-phenyl)-7-(4-fluoro-benzyl)-1,4,6,7-tetrahydro-pyrano[4,3-c]pyrazole-3-carboxylic acid (4-methyl-piperazin-1-yl)-amide] | – | – | – | 8% | 13% | –
C[C@H](NC(=O)c1nn(-c2ccc(Cl)cc2Cl)c2c1COC/C2=C\c1ccc(Cl)o1)C1CCCCC1 [Cpd 63, (7Z)-7-(5-chloro-furan-2-ylmethylene)-1-(2,4-dichloro-phenyl)-1,4,6,7-tetrahydro-pyrano[4,3-c]pyrazole-3-carboxylic acid [(S)-1-cyclohexyl-ethyl]-amide] | – | – | – | – | 10% | 25%
O=C(N[C@H](CO)c1ccccc1)c1nn(-c2ccc(Cl)cc2Cl)c2c1COC/C2=C\c1ccc(Cl)s1 [Cpd 58, (7Z)-7-(5-chloro-thiophen-2-ylmethylene)-1-(2,4-dichloro-phenyl)-1,4,6,7-tetrahydro-pyrano[4,3-c]pyrazole-3-carboxylic acid [(S)-2-hydroxy-1-phenyl-ethyl]-amide] | – | – | – | 59% | 0% | –
CC(NC(=O)c1nn(-c2ccc(Cl)cc2Cl)c2c1COC/C2=C\c1ccc(Cl)s1)c1ccccn1 (centres unmarked) [Cpd 60, (7Z)-7-(5-chloro-thiophen-2-ylmethylene)-1-(2,4-dichloro-phenyl)-1,4,6,7-tetrahydro-pyrano[4,3-c]pyrazole-3-carboxylic acid (1-pyridin-2-yl-ethyl)-amide] | – | – | – | 58% | 7% | –
